In ChEMBL document CHEMBL2424512, “Discovery and biophysical characterization of 2-amino-oxadiazoles as novel antagonists of PqsR, an important regulator of Pseudomonas aeruginosa virulence” (J Med Chem, 2013):
Calls of active or inactive are those of the source. The calls are words filed in the database; no cut-off is given here.

Experiments:
[1] = molecular target: T1, Transcriptional regulator MvfR (Pseudomonas aeruginosa PA14, UniProt A0A072ZLE6); assay: Binding affinity to Pseudomonas aeruginosa PA14 biotinylated His6SUMO-tagged PqsR expressed in Eschericia coli BL21 (lamda DE3) by isothermal titration calorimetry
T1 sequence (A0A072ZLE6 whole entry): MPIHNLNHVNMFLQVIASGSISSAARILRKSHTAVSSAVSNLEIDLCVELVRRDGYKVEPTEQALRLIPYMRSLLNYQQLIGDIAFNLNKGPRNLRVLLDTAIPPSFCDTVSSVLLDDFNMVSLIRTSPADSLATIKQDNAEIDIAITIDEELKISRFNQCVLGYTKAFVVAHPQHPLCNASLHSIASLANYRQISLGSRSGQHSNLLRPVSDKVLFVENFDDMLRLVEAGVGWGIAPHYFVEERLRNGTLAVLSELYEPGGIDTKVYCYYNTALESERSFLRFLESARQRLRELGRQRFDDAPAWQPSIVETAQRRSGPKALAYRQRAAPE

[2] = molecular target: T1, Transcriptional regulator MvfR; assay: Binding affinity to Pseudomonas aeruginosa PA14 biotinylated His6SUMO-tagged PqsR expressed in Eschericia coli BL21 (DE3) by surface plasmon resonance spectroscopic analysis
[3] = molecular target: T2, Transcriptional regulator MvfR (Pseudomonas aeruginosa PA14) (UniProt A0A072ZLE6); assay: Antagonist activity at Pseudomonas aeruginosa PA14 PqsR assessed as reduction of pyocyanin level by UHPLC-MS/MS analysis
T2 sequence (whole entry): T1 sequence (A0A072ZLE6 whole entry)

[4] = molecular target: T1, Transcriptional regulator MvfR; assay: Antagonist activity at Pseudomonas aeruginosa PA14 PqsR expressed in Eschericia coli DH5-alpha assessed as inhibition of PQS-induced protein activation by beta-galactosidase reporter gene assay
[5] = molecular target: T1, Transcriptional regulator MvfR; assay: Antagonist activity at Pseudomonas aeruginosa PA14 PqsR expressed in pqs gene-deficient Pseudomonas aeruginosa PA14 by beta-galactosidase reporter gene assay
Pseudomonas aeruginosa = assay: Antibacterial activity against Pseudomonas aeruginosa PA14 at 250 uM after 1 to 8 hrs by spectrophotometer analysis; assay type: functional, organism-based

Row | Structure (SMILES) | Kd [1] | Kd [2] | EC50 [4] | also measured
1 | Nc1nnc(-c2ccc(Cl)cc2)s1 | 3.7 µM | 4.5 µM | – | –
2 | Cc1nnc(-c2cccc(C(F)(F)F)c2)o1 | 12.9 µM | – | – | –
3 | COc1cccc(-c2nnc(N)o2)c1 | – | – | – | inhibition [3]: inactive
4 | Nc1cccc(Br)n1 | 10 µM | 6.8 µM | – | –
5 | Nc1nnc(-c2cccc(OC(F)(F)F)c2)o1 | – | – | 46.5 µM | –
6 | FC(F)(F)c1cc(-c2cccs2)n[nH]1 | 8.5 µM | 10.7 µM | – | –
7 | CCCCCCCc1cc(=O)c2cc(C(F)(F)F)ccc2[nH]1 | – | – | – | inhibition [3]: Active
8 | Nc1nnc(-c2cccc(Br)c2)o1 | – | – | 7.5 µM | –
9 | CC(C)(C)c1ccc(C(N)=O)cc1 | 0.9 µM | – | – | –
10 | CCCCCCCc1[nH]c2ccccc2c(=O)c1O | – | 0.21 µM | – | –
11 | N#Cc1cccc(-c2nnc(N)o2)c1 | – | – | 17.8 µM | –
12 | Nc1nnc(-c2ccc(Cl)cc2)o1 | – | 200 µM | – | –
13 | CC(C)(C)c1cccc(-c2nnc(N)o2)c1 | 3.1 µM | – | – | –
14 | FC(F)(F)c1cccc(-c2nnco2)c1 | 6.5 µM | – | 101 µM | –
15 | Cc1cccc(-c2nnc(N)o2)c1 | 12.4 µM | – | 57.8 µM | –
16 | NC(=O)c1ccc2ccccc2c1 | 1.8 µM | 0.8 µM | – | –
17 | Nc1nnc(-c2cccc(C(F)(F)F)c2)o1 | 1.3 µM | – | 7.5 µM | EC50 [5]: 38.5 µM; Activity (Pseudomonas aeruginosa): inactive
18 | NC(=O)c1cccc(Br)c1 | 7.6 µM | 6.8 µM | – | –
19 | Nc1nnc(-c2cccc(Cl)c2)o1 | – | – | 26.7 µM | –
20 | CC(C)(C)c1ccc(C(=O)NO)cc1 | – | – | – | inhibition [3]: Active
